Measured values from PubChem BioAssay (NCI).
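Following 48 hours of exposure in 96-well plates, responses at five concentrations were used to interpolate endpoints linearly. The concentration for 50% growth inhibition is given as GI50. TGI is the concentration that stops growth completely.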

What was measured:
Test in all cases: inhibition of tumour cell growth, NCI panel, 48 h
786-0 renal = system: 786-0 renal
A498 renal = system: A498 renal
A549 NSCLC = system: A549 NSCLC
ACHN renal = system: ACHN renal
BT-549 breast = system: BT-549 breast
CAKI-1 renal = system: CAKI-1 renal
CCRF-CEM leukemia = system: CCRF-CEM leukemia
COLO 205 colon = system: COLO 205 colon
DU-145 prostate = system: DU-145 prostate
EKVX NSCLC = system: EKVX NSCLC
HCC-2998 colon = system: HCC-2998 colon
HCT-116 colon = system: HCT-116 colon
HCT-15 colon = system: HCT-15 colon
HL-60(TB) leukemia = system: HL-60(TB) leukemia
HOP-62 NSCLC = system: HOP-62 NSCLC
HOP-92 NSCLC = system: HOP-92 NSCLC
HS 578T breast = system: HS 578T breast
HT29 colon = system: HT29 colon
IGROV1 ovarian = system: IGROV1 ovarian
K-562 leukemia = system: K-562 leukemia
KM12 colon = system: KM12 colon
LOX IMVI melanoma = system: LOX IMVI melanoma
M14 melanoma = system: M14 melanoma
MALME-3M melanoma = system: MALME-3M melanoma
MCF7 breast = system: MCF7 breast
MDA-MB-231 breast = system: MDA-MB-231 breast
MDA-MB-435 = system: MDA-MB-435
MOLT-4 leukemia = system: MOLT-4 leukemia
NCI-H226 lung = system: NCI-H226 lung
NCI-H23 lung = system: NCI-H23 lung
NCI-H460 lung = system: NCI-H460 lung
NCI-H522 lung = system: NCI-H522 lung
NCI/ADR-RES ovarian = system: NCI/ADR-RES ovarian
OVCAR-3 ovarian = system: OVCAR-3 ovarian
OVCAR-4 ovarian = system: OVCAR-4 ovarian
OVCAR-5 ovarian = system: OVCAR-5 ovarian
OVCAR-8 ovarian = system: OVCAR-8 ovarian
PC-3 prostate = system: PC-3 prostate
RPMI-8226 leukemia = system: RPMI-8226 leukemia
RXF 393 renal = system: RXF 393 renal
SF-268 CNS = system: SF-268 CNS
SF-295 CNS = system: SF-295 CNS
SF-539 CNS = system: SF-539 CNS
SK-MEL-2 melanoma = system: SK-MEL-2 melanoma
SK-MEL-28 melanoma = system: SK-MEL-28 melanoma
SK-MEL-5 melanoma = system: SK-MEL-5 melanoma
SK-OV-3 ovarian = system: SK-OV-3 ovarian
SN12C renal = system: SN12C renal
SNB-19 CNS = system: SNB-19 CNS
SNB-75 CNS = system: SNB-75 CNS
SR leukemia = system: SR leukemia
SW-620 colon = system: SW-620 colon
T-47D breast = system: T-47D breast
TK-10 renal = system: TK-10 renal
U251 CNS = system: U251 CNS
UACC-257 melanoma = system: UACC-257 melanoma
UACC-62 melanoma = system: UACC-62 melanoma
UO-31 renal = system: UO-31 renal

**Q.** For `CC1(C)CC(OCCCC[P+](c2ccccc2)(c2ccccc2)c2ccccc2)CC(C)(C)N1O`, which GI50 (786-0 renal) is on record?
**A.** 738 nM

**Q.** And the TGI (786-0 renal)?
**A.** 2230 nM

**Q.** And the GI50 (A498 renal)?
**A.** 644 nM

**Q.** What about the TGI (A498 renal) of the same compound?
**A.** 3.89 µM

**Q.** And the GI50 (A549 NSCLC)?
**A.** 370 nM

**Q.** What about the TGI (A549 NSCLC) of the same compound?
**A.** 11.5 µM

**Q.** What about the GI50 (ACHN renal) of the same compound?
**A.** 2390 nM

**Q.** What about the TGI (ACHN renal) of the same compound?
**A.** 7.28 µM

**Q.** What about the GI50 (BT-549 breast) of the same compound?
**A.** 274 nM

**Q.** What about the TGI (BT-549 breast) of the same compound?
**A.** 1040 nM

**Q.** And the GI50 (CAKI-1 renal)?
**A.** 1190 nM

**Q.** And the TGI (CAKI-1 renal)?
**A.** 4.01 µM

**Q.** And the GI50 (CCRF-CEM leukemia)?
**A.** 246 nM

**Q.** What about the TGI (CCRF-CEM leukemia) of the same compound?
**A.** 1520 nM

**Q.** What about the GI50 (COLO 205 colon) of the same compound?
**A.** 202 nM

**Q.** What about the TGI (COLO 205 colon) of the same compound?
**A.** 402 nM

**Q.** What about the GI50 (DU-145 prostate) of the same compound?
**A.** 409 nM

**Q.** What about the TGI (DU-145 prostate) of the same compound?
**A.** 7.75 µM

**Q.** What about the GI50 (EKVX NSCLC) of the same compound?
**A.** 256 nM

**Q.** What about the TGI (EKVX NSCLC) of the same compound?
**A.** 4.37 µM

**Q.** And the GI50 (HCC-2998 colon)?
**A.** 287 nM

**Q.** And the TGI (HCC-2998 colon)?
**A.** 3.19 µM

**Q.** And the GI50 (HCT-116 colon)?
**A.** 238 nM

**Q.** What about the TGI (HCT-116 colon) of the same compound?
**A.** 3.61 µM

**Q.** What about the GI50 (HCT-15 colon) of the same compound?
**A.** 2780 nM

**Q.** And the TGI (HCT-15 colon)?
**A.** 9.12 µM

**Q.** What about the GI50 (HL-60(TB) leukemia) of the same compound?
**A.** 125 nM

**Q.** And the TGI (HL-60(TB) leukemia)?
**A.** 421 nM

**Q.** What about the GI50 (HOP-62 NSCLC) of the same compound?
**A.** 440 nM

**Q.** What about the TGI (HOP-62 NSCLC) of the same compound?
**A.** 2100 nM

**Q.** What about the GI50 (HOP-92 NSCLC) of the same compound?
**A.** 199 nM

**Q.** And the TGI (HOP-92 NSCLC)?
**A.** 903 nM

**Q.** And the GI50 (HS 578T breast)?
**A.** 229 nM

**Q.** What about the TGI (HS 578T breast) of the same compound?
**A.** 1030 nM

**Q.** What about the GI50 (HT29 colon) of the same compound?
**A.** 340 nM

**Q.** What about the TGI (HT29 colon) of the same compound?
**A.** 7.26 µM

**Q.** And the GI50 (IGROV1 ovarian)?
**A.** 477 nM

**Q.** And the TGI (IGROV1 ovarian)?
**A.** 2020 nM

**Q.** And the GI50 (K-562 leukemia)?
**A.** 186 nM

**Q.** And the TGI (K-562 leukemia)?
**A.** 18.1 µM

**Q.** What about the GI50 (KM12 colon) of the same compound?
**A.** 284 nM

**Q.** And the TGI (KM12 colon)?
**A.** 966 nM

**Q.** What about the GI50 (LOX IMVI melanoma) of the same compound?
**A.** 317 nM

**Q.** What about the TGI (LOX IMVI melanoma) of the same compound?
**A.** 1250 nM

**Q.** And the GI50 (M14 melanoma)?
**A.** 433 nM

**Q.** What about the TGI (M14 melanoma) of the same compound?
**A.** 1900 nM

**Q.** What about the GI50 (MALME-3M melanoma) of the same compound?
**A.** 317 nM

**Q.** What about the TGI (MALME-3M melanoma) of the same compound?
**A.** 1070 nM

**Q.** And the GI50 (MCF7 breast)?
**A.** 203 nM

**Q.** What about the TGI (MCF7 breast) of the same compound?
**A.** 1200 nM

**Q.** What about the GI50 (MDA-MB-231 breast) of the same compound?
**A.** 252 nM

**Q.** What about the TGI (MDA-MB-231 breast) of the same compound?
**A.** 832 nM

**Q.** And the GI50 (MDA-MB-435)?
**A.** 301 nM

**Q.** And the TGI (MDA-MB-435)?
**A.** 1150 nM

**Q.** And the GI50 (MOLT-4 leukemia)?
**A.** 340 nM

**Q.** And the TGI (MOLT-4 leukemia)?
**A.** 4.12 µM

**Q.** What about the GI50 (NCI-H226 lung) of the same compound?
**A.** 472 nM

**Q.** And the TGI (NCI-H226 lung)?
**A.** 10.6 µM

**Q.** What about the GI50 (NCI-H23 lung) of the same compound?
**A.** 254 nM

**Q.** What about the TGI (NCI-H23 lung) of the same compound?
**A.** 1950 nM

**Q.** What about the GI50 (NCI-H460 lung) of the same compound?
**A.** 282 nM

**Q.** What about the TGI (NCI-H460 lung) of the same compound?
**A.** 1520 nM

**Q.** And the GI50 (NCI-H522 lung)?
**A.** 275 nM

**Q.** And the TGI (NCI-H522 lung)?
**A.** 1160 nM

**Q.** And the GI50 (NCI/ADR-RES ovarian)?
**A.** 5.56 µM

**Q.** And the TGI (NCI/ADR-RES ovarian)?
**A.** 21.5 µM

**Q.** What about the GI50 (OVCAR-3 ovarian) of the same compound?
**A.** 241 nM

**Q.** What about the TGI (OVCAR-3 ovarian) of the same compound?
**A.** 871 nM

**Q.** What about the GI50 (OVCAR-4 ovarian) of the same compound?
**A.** 320 nM

**Q.** What about the TGI (OVCAR-4 ovarian) of the same compound?
**A.** 4.32 µM

**Q.** And the GI50 (OVCAR-5 ovarian)?
**A.** 481 nM

**Q.** What about the TGI (OVCAR-5 ovarian) of the same compound?
**A.** 8.42 µM

**Q.** And the GI50 (OVCAR-8 ovarian)?
**A.** 333 nM

**Q.** And the TGI (OVCAR-8 ovarian)?
**A.** 2610 nM

**Q.** And the GI50 (PC-3 prostate)?
**A.** 205 nM

**Q.** What about the TGI (PC-3 prostate) of the same compound?
**A.** 4.04 µM

**Q.** What about the GI50 (RPMI-8226 leukemia) of the same compound?
**A.** 19 nM

**Q.** And the TGI (RPMI-8226 leukemia)?
**A.** 133 nM

**Q.** And the GI50 (RXF 393 renal)?
**A.** 518 nM

**Q.** What about the TGI (RXF 393 renal) of the same compound?
**A.** 2080 nM

**Q.** And the GI50 (SF-268 CNS)?
**A.** 412 nM

**Q.** What about the TGI (SF-268 CNS) of the same compound?
**A.** 1880 nM

**Q.** What about the GI50 (SF-295 CNS) of the same compound?
**A.** 337 nM

**Q.** What about the TGI (SF-295 CNS) of the same compound?
**A.** 1390 nM

**Q.** And the GI50 (SF-539 CNS)?
**A.** 327 nM

**Q.** What about the TGI (SF-539 CNS) of the same compound?
**A.** 10.2 µM

**Q.** What about the GI50 (SK-MEL-2 melanoma) of the same compound?
**A.** 272 nM

**Q.** What about the TGI (SK-MEL-2 melanoma) of the same compound?
**A.** 641 nM

**Q.** What about the GI50 (SK-MEL-28 melanoma) of the same compound?
**A.** 628 nM

**Q.** And the TGI (SK-MEL-28 melanoma)?
**A.** 2020 nM

**Q.** What about the GI50 (SK-MEL-5 melanoma) of the same compound?
**A.** 163 nM

**Q.** What about the TGI (SK-MEL-5 melanoma) of the same compound?
**A.** 358 nM

**Q.** What about the GI50 (SK-OV-3 ovarian) of the same compound?
**A.** 302 nM

**Q.** What about the TGI (SK-OV-3 ovarian) of the same compound?
**A.** 787 nM

**Q.** What about the GI50 (SN12C renal) of the same compound?
**A.** 306 nM

**Q.** And the TGI (SN12C renal)?
**A.** 1180 nM

**Q.** What about the GI50 (SNB-19 CNS) of the same compound?
**A.** 317 nM

**Q.** What about the TGI (SNB-19 CNS) of the same compound?
**A.** 2200 nM

**Q.** And the GI50 (SNB-75 CNS)?
**A.** 331 nM

**Q.** What about the TGI (SNB-75 CNS) of the same compound?
**A.** 3.61 µM

**Q.** And the GI50 (SR leukemia)?
**A.** 273 nM

**Q.** And the TGI (SR leukemia)?
**A.** 1540 nM

**Q.** What about the GI50 (SW-620 colon) of the same compound?
**A.** 337 nM

**Q.** What about the TGI (SW-620 colon) of the same compound?
**A.** 4.86 µM

**Q.** And the GI50 (T-47D breast)?
**A.** 143 nM

**Q.** And the TGI (T-47D breast)?
**A.** 1230 nM

**Q.** And the GI50 (TK-10 renal)?
**A.** 361 nM

**Q.** What about the TGI (TK-10 renal) of the same compound?
**A.** 2360 nM

**Q.** What about the GI50 (U251 CNS) of the same compound?
**A.** 247 nM

**Q.** What about the TGI (U251 CNS) of the same compound?
**A.** 1540 nM

**Q.** And the GI50 (UACC-257 melanoma)?
**A.** 307 nM

**Q.** What about the TGI (UACC-257 melanoma) of the same compound?
**A.** 977 nM

**Q.** And the GI50 (UACC-62 melanoma)?
**A.** 392 nM

**Q.** What about the TGI (UACC-62 melanoma) of the same compound?
**A.** 1640 nM

**Q.** And the GI50 (UO-31 renal)?
**A.** 2660 nM

**Q.** What about the TGI (UO-31 renal) of the same compound?
**A.** 8.29 µM
